Assay results taken from US12427134B2, “Methods of reducing the risk of cardiovascular events in a subject with atrial fibrillation and/or atrial flutter” (priority 2019, dated 2025).

Tested on: hypertriglyceridemic patients with cardiovascular disease or at high risk for cardiovascular disease
Test: REDUCE-IT: time to first occurrence of adjudicated cardiovascular endpoint events (primary, key secondary, other secondary, tertiary; sensitivity and landmark analyses)
Format: in vivo
Source text: The following study, also referred to as the REDUCE-IT clinical trial, was a large cardiovascular (CV) outcome trial designed to assess CV risk reduction benefit of AMR101 treatment (commercially known as VASCEPA®) versus placebo on the 5-point primary composite endpoint: CV death, non-fatal stroke, non-fatal myocardial infarction (MI), coronary revascularizations, or unstable angina requiring hospitalization.
A multi-center, prospective, randomized, double-blind, placebo-controlled, parallel-group study was performed to evaluate the effect of AMR101 (4 g per day) on cardiovascular health and mortality in hypertriglyceridemic patients with cardiovascular disease or at high risk for cardiovascular disease. The intended expanded indication of the study was treatment with AMR101 as an add-on to statin therapy to reduce the risk of cardiovascular events in patients with clinical cardiovascular disease or with multiple risk factors for cardiovascular disease.
The primary objective of this study was, in patients at LDL-C goal while on statin therapy, with established cardiovascular disease (CVD) or at high risk for CVD, and hypertriglyceridemia (e.g., fasting triglycerides (TG) ≥200 mg/dL and <500 mg/dL), to evaluate the effect of AMR101 4 g daily on time from randomization to first occurrence of any component of the composite of the following major CV events: CV death; nonfatal MI; (including silent MI; electrocardiograms (ECGs) were performed annually for the detection of silent MIs); nonfatal stroke; coronary revascularization; and unstable angina determined to be caused by myocardial ischemia by invasive/non-invasive testing and requiring emergent hospitalization.
The key secondary objective of this study was to evaluate the effect of AMR101 4 g daily on the time from randomization to the first occurrence of the composite of following major CV events: CV death, nonfatal MI (including silent MI), and nonfatal stroke.
Other secondary objectives for this study were to evaluate the effect of therapy on time from randomization to the first occurrence of the following individual or composite endpoints: composite of CV death or nonfatal MI (including silent MI); fatal or nonfatal MI (including silent MI); non-elective coronary revascularization represented as the composite of emergent or urgent classifications; CV death; unstable angina determined to be caused by myocardial ischemia by invasive/non-invasive testing and requiring emergent hospitalization; fatal or nonfatal stroke; composite of total mortality, nonfatal MI (including silent MI), or nonfatal stroke; and total mortality.
The key tertiary objectives for this study were to evaluate the effect of AMR101 4 g daily from baseline and percent change from baseline in fasting triglycerides and LDL-C. […]

[1] = ITT population, listed as Icosapent Ethyl
[2] = clinically adjudicated arrhythmia sequelae, safety population
[3] = clinically adjudicated arrhythmia sequelae, safety population, vs placebo
[4] = determined programmatically, ITT
[5] = excludes patients with Type 1 or Type 2 diabetes at baseline, ITT
[6] = tertiary endpoint, first occurrence, ITT
[7] = vs placebo, listed as Icosapent Ethyl
[8] = vs placebo, listed as icosapent ethyl

CC/C=C\C/C=C\C/C=C\C/C=C\C/C=C\CCCC(=O)OCC [AMR101, eicosapentaenoic acid ethyl ester]
New Heart Failure (newly emergent CHF), HR (95% CI) [1]: 0.95 (0.77, 1.17) | New Heart Failure (newly emergent CHF), patients with event [1]: (4.1%) | New Heart Failure Requiring Hospitalization, HR (95% CI) [1]: 0.97 (0.77, 1.22) | New Heart Failure Requiring Hospitalization, patients with event [1]: (3.4%) | New Onset Hypertension, HR (95% CI) [1]: 0.86 (0.41-1.80) | Peripheral Artery Disease, HR (95% CI) [1]: 0.97 (0.78-1.21) | Peripheral Artery Disease, patients with event [1]: (3.8) % | Sudden Cardiac Death, HR (95% CI) [1]: 0.69 (0.50, 0.96) | Sudden Cardiac Death, patients with event [1]: (1.5%) | Transient Ischemic Attack, patients with event [1]: (1.6%) | Urgent Revascularization, HR (95% CI) [1]: 0.66 (0.54, 0.79) | Urgent Revascularization, patients with event [1]: (4.4%) | Deaths with undetermined cause (Safety population): 36 (0.9) n (%) | Non-CV deaths (Safety population): 100 (2.4) n (%) | Total mortality (Safety population, N = 4089): 274 (6.7) n (%) | Coronary Revascularization, events (%) (clinically adjudicated arrhythmia sequelae, composite of emergent, urgent, elective, salvage, safety population): (9.2%) | Any Myocardial Infarction, events (%) [2]: (6.1%) | Any Stroke, events (%) [2]: (2.4%) | Cardiac Arrest, events (%) [2]: (0.5%) | Carotid Revascularization, events (%) [2]: (0.8%) | Sudden Cardiac Death, events (%) [2]: (1.5%) | Transient Ischemic Attack, events (%) [2]: (1.6%) | Any Myocardial Infarction, HR (95% CI) [3]: 0.69 (0.58 to 0.81) | Any Stroke, HR (95% CI) [3]: 0.72 (0.55 to 0.93) | Cardiac Arrest, HR (95% CI) [3]: 0.52 (0.31 to 0.86) | Sudden Cardiac Death, HR (95% CI) [3]: 0.69 (0.50 to 0.96) | Transient Ischemic Attack, HR (95% CI) [3]: 1.32 (0.91 to 1.92) | Coronary Revascularization, HR (95% CI) Icosapent Ethyl/Placebo (composite of emergent, urgent, elective, salvage, ITT): 0.66 (0.58-0.76) | Coronary Revascularization, patients with event (%) (composite of emergent, urgent, elective, salvage, first occurrence, ITT): (9.2) % | New Onset Hypertension, HR (95% CI) Icosapent Ethyl/Placebo [4]: 0.86 (0.41-1.80) | New Onset Hypertension, patients with event (%) [4]: (0.3) % | New Onset Type 2 Diabetes, HR (95% CI) Icosapent Ethyl/Placebo [5]: 1.04 (0.73-1.47) | New Onset Type 2 Diabetes, patients with event (%) [5]: (3.8) % | Primary endpoint, risk reduction (post hoc analysis excluding patients with diarrhea): 25% | Cardiac Arrest, HR (95% CI) Icosapent Ethyl/Placebo (tertiary endpoint, ITT): 0.52 (0.31-0.86) | Elective Revascularization, HR (95% CI) Icosapent Ethyl/Placebo (tertiary endpoint, ITT): 0.68 (0.57-0.82) | Emergent Revascularization, HR (95% CI) Icosapent Ethyl/Placebo (tertiary endpoint, ITT): 0.62 (0.42-0.92) | Ischemic Stroke, HR (95% CI) Icosapent Ethyl/Placebo (tertiary endpoint, ITT): 0.64 (0.49-0.85) | Newly Emergent CHF Requiring Hospitalization, HR (95% CI) Icosapent Ethyl/Placebo (tertiary endpoint, ITT): 0.97 (0.77-1.22) | Newly Emergent CHF, HR (95% CI) Icosapent Ethyl/Placebo (tertiary endpoint, ITT): 0.95 (0.77-1.17) | Peripheral Artery Disease, HR (95% CI) Icosapent Ethyl/Placebo (tertiary endpoint, ITT): 0.97 (0.78-1.21) | Salvage Revascularization, HR (95% CI) Icosapent Ethyl/Placebo (tertiary endpoint, ITT): 0.00 (0.00-0.00) | Sudden Cardiac Death, HR (95% CI) Icosapent Ethyl/Placebo (tertiary endpoint, ITT): 0.69 (0.50-0.96) | Transient Ischemic Attack, HR (95% CI) Icosapent Ethyl/Placebo (tertiary endpoint, ITT): 1.32 (0.91-1.92) | Urgent Revascularization, HR (95% CI) Icosapent Ethyl/Placebo (tertiary endpoint, ITT): 0.66 (0.54-0.79) | Amputation for PVD, patients with event (%) [6]: (0.5) % | Cardiac Arrest, patients with event (%) [6]: (0.5) % | Cardiac Arrhythmia Requiring Hospitalization of ≥24 Hours, patients with event (%) [6]: (4.6) % | Carotid Revascularization, patients with event (%) [6]: (0.8) % | Elective Revascularization, patients with event (%) [6]: (4.7) % | Emergent Revascularization, patients with event (%) [6]: (1.0) % | Hemorrhagic Stroke, patients with event (%) [6]: (0.3) % | Ischemic Stroke, patients with event (%) [6]: (2.0) % | Newly Emergent CHF Requiring Hospitalization, patients with event (%) [6]: (3.4) % | Newly Emergent CHF, patients with event (%) [6]: (4.1) % | Peripheral Artery Disease, patients with event (%) [6]: (3.8) % | Salvage Revascularization, patients with event (%) [6]: (0.0) % | Sudden Cardiac Death, patients with event (%) [6]: (1.5) % | Transient Ischemic Attack, patients with event (%) [6]: (1.6) % | Urgent Revascularization, patients with event (%) [6]: (4.4) % | Total mortality utilizing known vital status data (through 31 May 2018, assessed as of database lock): 7.3% | Key secondary composite endpoint, relative risk reduction (vs placebo): 26.5% | Primary composite endpoint, relative risk reduction (vs placebo): 24.8% | Key secondary composite endpoint, relative risk reduction [7]: 26% | Primary composite endpoint, relative risk reduction [7]: 25% | Key secondary composite endpoint, relative risk reduction [8]: 26% | Primary composite endpoint, relative risk reduction [8]: 25%
